Legend:
neoplastic cell lines = details: in vitro; Monti et al., PAACR 1995 and 1997; cited from earlier work
C3H female mice = assay: Lifetime incidence of cancer in normal C3H female mice given Tempol in drinking water; assay type: in vivo; details: FIG. 2
Description: Female C3H mice were supplied through the Frederick Cancer Research Center-Animal Production, Frederick, Md. […] All groups were allowed food and water ad libitum. All groups were followed for their entire life span. Animals were sacrificed at the first sign of a visible tumor nodule, gross enlargement of spleen, or marked difficulty in breathing. The presence of tumor was confirmed histologically.

In the case of `CC1(C)CC(O)CC(C)(C)N1[O]` [Tempol, 4-hydroxy-2,2,6,6-tetramethylpiperidine-1-oxyl], the “cytotoxicity against neoplastic cell lines” value (neoplastic cell lines) is given as “cytotoxic”, the “incidence of cancer (total number of tumors/group) compared to controls” value (C3H female mice; Tempol 58 mM in drinking water for entire life span) is given as “four-fold reduction” and the “incidence of cancer (total number of tumors/group) compared to both control groups” value (C3H female mice; Tempol 58 mM in drinking water for one year) is given as “dramatically reduced the incidence of cancer”.
